Drawing on patent publication US20230107216A1, “PANTETHEINE DERIVATIVES AND USES THEREOF” (Comet Therapeutics, Inc., priority 2018, published 2023), this text covers activation and inhibition for twelve molecules.

Molecules are shown by their SMILES. Read-outs that look alike come from different tables or passages of the source.

The test system of experiment [1] is Methylmalonic Acidemia (MMA) primary fibroblasts Tsi 5224. The experiment in a line: Mitochondrial respiration, XFe96 Extracellular Flux Analyzer (OCR/ECAR), MMA fibroblasts Tsi 5224.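 For Increase in Maximal Respiratory Capacity AUC: relative to vehicle DMSO control.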 It counts as cell-based. The note with it: Homo sapiens, Fibroblast. The method in brief: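 Primary fibroblasts (20000 cells/well) were held 24 h in supplemented DMEM before Seahorse OCR/ECAR profiling. Compounds at 10 to 50 μM or 0.1% DMSO were injected after baseline, then oligomycin 1 μg/ml, FCCP, and rotenone/antimycin A 0.5 μM. Values were normalized to Hoechst nuclear counts, baselined to pre-compound, and expressed relative to vehicle.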

Experiment [2] relates to primary fibroblasts (healthy controls and PA, MMA, BCKDK, PDH, VLCAD, LS, PC, GA, VLCFA, KSS, FXN, HD). The experiment in a line: Measurement of ROS (H2DCFDA) in primary fibroblasts. It counts as cell-based, human. The note with it: Homo sapiens, procedure Example 812. The method in brief: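 Patient and healthy-control primary fibroblasts switched to supplemented DMEM 24 h before assay, then treated with compound (10 μM) plus H2DCFDA (22 μM) for 2 h (PA, MMA lines) or 24 h (other lines). Kinetic fluorescence at 492/527 nm over 60 min; only live cells analysed.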

Setting [3] is: MMA Tsi 5224, assay condition D (1 mM glucose, 10% FBS), read-out: Increase in Maximal Respiratory Capacity AUC.
Setting [4] is: Fibroblast, BCKD GM00649, Assay Condition C, read-out: Decreased ROS by at least 10%.
Setting [5] is: Fibroblast, BCKD GM00649, Assay Condition C, read-out: Decreased ROS by at least 30%.
Where [6] appears, read: FXN GM04078, Assay Condition C, read-out: Decreased ROS by at least 10%.
The mark [7] stands for this setting: FXN GM04078, Assay Condition C, read-out: Decreased ROS by at least 30%.
The mark [8] stands for this setting: Fibroblast, PDH GM01503, Assay Condition C, read-out: Decreased ROS by at least 10%.
Setting [9] is: Fibroblast, PDH GM01503, Assay Condition C, read-out: Decreased ROS by at least 30%.
[10] abbreviates: Fibroblast, BCKD GM00612, Assay Condition A, read-out: Decreased ROS by at least 10%.
Where [11] appears, read: Fibroblast, VLCFA GM13262, Assay Condition C, read-out: Decreased ROS by at least 30%.
Setting [12] is: MMA Tsi 5224, assay condition A (10 mM glucose, 2 mM L-glutamine, 1 mM pyruvate, 10% FBS), read-out: Increase in Maximal Respiratory Capacity AUC.

With `CC(O)CC(O)CC(=O)SCCNC(=O)CCNC(=O)[C@H](O)C(C)(C)CO` (stereo partly shown) [Compound 400], the activation at 10 µM in experiment [1] (setting [3]) was no less than 10%. Besides, the inhibition at 10 µM in experiment [2] (setting [4]) is no less than 10%; in experiment [2] (setting [5]), no less than 30%; in experiment [2] (setting [6]), no less than 10%; in experiment [2] (setting [7]), no less than 30%.
Consider `COC(=O)CC(C(C)=O)C(=O)SCCNC(=O)CCNC(=O)[C@H](O)C(C)(C)CO` (stereo partly shown) [Compound 410], for which the activation at 10 µM in experiment [1] (setting [3]) is no less than 10%. For the same molecule, the inhibition at 10 µM in experiment [2] (setting [5]) was no less than 30%; in experiment [2] (Fibroblast, MMA Tsi 5224, Assay Condition A, read-out: Decreased ROS by at least 10%), no less than 10%; in experiment [2] (setting [6]), no less than 10%; in experiment [2] (setting [7]), no less than 30%.
With `C[C@H](CC(=O)SCCNC(=O)CCNC(=O)[C@H](O)C(C)(C)CO)OC(=O)CCC(=O)O` [Compound 1243, 4-{[(2R)-4-[(2-{3-[(2R)-2,4-dihydroxy-3,3-dimethylbutanamido]propanamido}ethyl)sulfanyl]-4-oxobutan-2-yl]oxy}-4-oxobutanoic acid], in experiment [1] (MMA Tsi 5224, assay condition A (10 mM glucose, 2 mM L-glutamine, 1 mM pyruvate, 10% FBS), read-out: Increase in Spare Capacity AUC), the activation at 10 µM is no less than 10%. In addition, the inhibition at 10 µM in experiment [2] (setting [4]) is no less than 10%; in experiment [2] (setting [5]) it was no less than 30%; in experiment [2] (setting [6]) it was no less than 10%; in experiment [2] (setting [7]), no less than 30%.
As for `CC1(CC(=O)SCCNC(=O)CCNC(=O)[C@H](O)C(C)(C)CO)OCCO1` [Compound 1252, (R)—S-(2-(3-(2,4-dihydroxy-3,3-dimethylbutanamido)propanamido)ethyl)-2-(2-methyl-1,3-dioxolan-2-yl)ethanethioate], the activation at 10 µM in experiment [1] (setting [3]) was no less than 10%. For the same molecule, the values for the inhibition at 10 µM in experiment [2] (setting [8]) and in experiment [2] (setting [9]) were no less than 10% and no less than 30%, respectively.
In the case of `CC(C)C(=O)CC(=O)SCCNC(=O)CCNC(=O)[C@H](O)C(C)(C)CO` [Compound 1239, (R)—S-(2-(3-(2,4-dihydroxy-3,3-dimethylbutanamido)propanamido)ethyl) 4-methyl-3-oxopentanethioate], the activation at 10 µM in experiment [1] (setting [3]) was no less than 10%. The inhibition at 10 µM was no less than 10% in experiment [2] (setting [10]), no less than 30% in experiment [2] (setting [11]), no less than 10% in experiment [2] (setting [6]) and no less than 30% in experiment [2] (setting [7]).
Consider `CC(C)=CC(=O)SCCNC(=O)CCNC(=O)[C@H](O)C(C)(C)CO` [Compound 37, S-2-{3-[(R)-2,4-dihydroxy-3,3-dimethylbutyrylamino]propionylamino}ethyl 3-methyl-2-butenethioate], for which the activation at 10 µM in experiment [1] (setting [3]) is no less than 10%. Further, the inhibition at 10 µM in experiment [2] (Fibroblast, VLCFA GM13262, Assay Condition C, read-out: Decreased ROS by at least 10%) was no less than 10%; in experiment [2] (setting [11]) it was no less than 30%.
In the case of `CC(C)(CO)[C@@H](O)C(=O)NCCC(=O)NCCSC(=O)CC(O)C(=O)O` (stereo partly shown) [Compound 39], in experiment [1] (setting [12]), the activation at 10 µM was no less than 10%. In addition, the inhibition at 10 µM in experiment [2] (Fibroblast, VLCAD GM17475, Assay Condition C, read-out: Decreased ROS by at least 10%) is no less than 10%.
Consider `C[C@@H](O)CC(=O)SCCNC(=O)CCNC(=O)[C@H](O)C(C)(C)CO` [Compound 38, S-2-{3-[(R)-2,4-dihydroxy-3,3-dimethylbutyrylamino]propionylamino} ethyl (R)-3-hydroxybutanethioate], for which, in experiment [1] (setting [3]), the activation at 10 µM is no less than 10%. Further, the inhibition at 10 µM in experiment [2] (setting [8]) was no less than 10%; in experiment [2] (setting [9]), no less than 30%; in experiment [2] (setting [6]), no less than 10%; in experiment [2] (setting [7]), no less than 30%.
Take `CC(C(=O)SCCNC(=O)CCNC(=O)[C@H](O)C(C)(C)CO)[C@@H](C)O` (stereo partly drawn) [Compound 1244, (2R)-2,4-dihydroxy-N-{2-[(2-{[(3R)-3-hydroxy-2-methylbutanoyl]sulfanyl}ethyl)carbamoyl]ethyl}-3,3-dimethylbutanamide]: the activation at 10 µM in experiment [1] (setting [12]) was no less than 10%. Besides, the inhibition at 10 µM was no less than 10% in experiment [2] (setting [10]) and no less than 30% in experiment [2] (setting [11]).
For `CCC(=O)CC(=O)SCCNC(=O)CCNC(=O)[C@H](O)C(C)(C)CO` [Compound 382, (2R)-2,4-dihydroxy-3,3-dimethyl-N-[2-([2-[(3-oxopentanoyl)sulfanyl]ethyl]carbamoyl)ethyl]butanamide], the activation at 10 µM in experiment [1] (setting [12]) was no less than 10%. Further, the inhibition at 10 µM in experiment [2] (setting [8]) is no less than 10%; in experiment [2] (Fibroblast, VLCAD GM17475, Assay Condition C, read-out: Decreased ROS by at least 30%) it was no less than 30%; in experiment [2] (setting [6]), no less than 10%; in experiment [2] (setting [7]) it was no less than 30%.
On to `COC(=O)/C=C/C(=O)SCCNC(=O)CCNC(=O)[C@H](O)C(C)(C)COP(=O)(O)O` [Compound 73, methyl (R,E)-4-((2-(3-(2-hydroxy-3,3-dimethyl-4-(phosphonooxy)butanamido)propanamido)ethyl)thio)-4-oxobut-2-enoate], for which, in experiment [1] (setting [3]), the activation at 10 µM is no less than 10%. Besides, the inhibition at 10 µM in experiment [2] (Fibroblast, NPC1 GM22879, Assay Condition C, read-out: Decreased ROS by at least 10%) was no less than 10%.
`C[C@@H](O)CC(=O)CC(=O)SCCNC(=O)CCNC(=O)[C@H](O)C(C)(C)CO` [Compound 42, (2R)-2,4-dihydroxy-N-[2-[(2-[[(5R)-5-hydroxy-3-oxohexanoyl]sulfanyl]ethyl)carbamoyl]ethyl]-3,3-dimethylbutanamide]: the activation at 10 µM in experiment [1] (setting [12]) was no less than 10%. The inhibition at 10 µM is no less than 30% in experiment [2] (Fibroblast, NPC1 GM22879, Assay Condition C, read-out: Decreased ROS by at least 30%) and no less than 10% in experiment [2] (setting [8]).
